{"source": "patent US7604671B2", "about": "“Perfumery for improved cold throw and burn in candle systems” (Givaudan Fragrances Corporation, priority 2004, dated 2009)", "origin": "cited, not measured here", "details": "Randebrock 1986", "data": [{"smiles": "CCCCCCCCCCC=O", "note": "[1-undecanal]", "values": [{"measurement": "experimental value for odor detection threshold in air", "value": 0.00054, "unit": "mg/m^3"}]}]}
